Where only a bound is given, the exact number is not on record here.

Consider twelve compounds from ChEMBL document CHEMBL5291721, “A preclinical secondary pharmacology resource illuminates target-adverse drug reaction associations of marketed drugs” (Nat Commun, 2023).

The target in one series is D(3) dopamine receptor (Homo sapiens, UniProt P35462).
In series [1] the target is Neuronal acetylcholine receptor subunit alpha-4 (Homo sapiens, UniProt P43681).
For series [2], the target named is Voltage-gated inwardly rectifying potassium channel KCNH2 (Homo sapiens, UniProt Q12809). The series is classed as functional.
Chain of Voltage-gated inwardly rectifying potassium channel KCNH2 (Q12809 whole entry): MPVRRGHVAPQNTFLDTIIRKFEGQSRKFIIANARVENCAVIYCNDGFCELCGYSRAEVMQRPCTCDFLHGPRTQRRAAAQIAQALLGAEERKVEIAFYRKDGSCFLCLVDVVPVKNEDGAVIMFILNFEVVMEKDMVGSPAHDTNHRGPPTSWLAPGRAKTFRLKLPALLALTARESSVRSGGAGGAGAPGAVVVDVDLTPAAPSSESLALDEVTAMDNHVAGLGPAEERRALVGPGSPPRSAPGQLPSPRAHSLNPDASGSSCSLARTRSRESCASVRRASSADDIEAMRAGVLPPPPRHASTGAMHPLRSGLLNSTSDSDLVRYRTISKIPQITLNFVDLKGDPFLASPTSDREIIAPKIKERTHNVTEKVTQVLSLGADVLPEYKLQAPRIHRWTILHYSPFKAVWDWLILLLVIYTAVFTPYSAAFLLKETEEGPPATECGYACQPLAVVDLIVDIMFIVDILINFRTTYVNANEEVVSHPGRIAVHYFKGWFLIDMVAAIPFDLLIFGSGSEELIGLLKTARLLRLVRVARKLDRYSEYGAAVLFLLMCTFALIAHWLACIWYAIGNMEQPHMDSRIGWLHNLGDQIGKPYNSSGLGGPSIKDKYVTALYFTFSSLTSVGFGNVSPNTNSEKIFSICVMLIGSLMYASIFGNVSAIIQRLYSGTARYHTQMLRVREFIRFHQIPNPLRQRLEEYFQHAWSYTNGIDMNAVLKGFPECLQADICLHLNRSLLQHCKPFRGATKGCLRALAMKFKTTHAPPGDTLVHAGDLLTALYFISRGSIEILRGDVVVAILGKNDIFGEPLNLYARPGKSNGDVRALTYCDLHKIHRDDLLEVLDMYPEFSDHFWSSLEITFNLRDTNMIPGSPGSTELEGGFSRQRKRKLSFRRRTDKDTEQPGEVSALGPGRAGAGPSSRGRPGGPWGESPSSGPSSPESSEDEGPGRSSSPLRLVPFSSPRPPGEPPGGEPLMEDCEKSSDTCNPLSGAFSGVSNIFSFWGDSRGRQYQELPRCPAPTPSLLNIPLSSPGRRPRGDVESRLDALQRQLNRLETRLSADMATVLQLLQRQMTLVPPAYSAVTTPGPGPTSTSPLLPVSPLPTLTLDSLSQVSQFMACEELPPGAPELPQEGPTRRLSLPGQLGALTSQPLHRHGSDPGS
For series [3], the target named is 5-hydroxytryptamine receptor 2A (Homo sapiens, UniProt P28223). It is filed as functional, cell-based.
Chain of 5-hydroxytryptamine receptor 2A (P28223 whole entry): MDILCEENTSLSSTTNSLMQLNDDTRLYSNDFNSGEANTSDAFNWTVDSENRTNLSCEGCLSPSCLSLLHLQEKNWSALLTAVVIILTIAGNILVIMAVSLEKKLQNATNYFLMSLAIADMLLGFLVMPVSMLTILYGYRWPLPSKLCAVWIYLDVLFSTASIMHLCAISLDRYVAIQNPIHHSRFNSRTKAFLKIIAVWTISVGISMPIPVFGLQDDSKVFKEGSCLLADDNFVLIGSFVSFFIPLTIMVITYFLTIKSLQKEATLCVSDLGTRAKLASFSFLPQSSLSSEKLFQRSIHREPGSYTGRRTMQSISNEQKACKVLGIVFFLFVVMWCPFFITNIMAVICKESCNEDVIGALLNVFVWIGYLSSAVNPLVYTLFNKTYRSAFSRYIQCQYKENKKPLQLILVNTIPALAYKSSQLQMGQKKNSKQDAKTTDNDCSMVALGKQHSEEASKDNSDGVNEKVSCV
The next series concerns the target Motilin receptor (Homo sapiens, UniProt O43193).
Series [4] addresses T1, Alpha-1A adrenergic receptor (Homo sapiens, UniProt P35348).
T1 sequence (P35348 whole entry): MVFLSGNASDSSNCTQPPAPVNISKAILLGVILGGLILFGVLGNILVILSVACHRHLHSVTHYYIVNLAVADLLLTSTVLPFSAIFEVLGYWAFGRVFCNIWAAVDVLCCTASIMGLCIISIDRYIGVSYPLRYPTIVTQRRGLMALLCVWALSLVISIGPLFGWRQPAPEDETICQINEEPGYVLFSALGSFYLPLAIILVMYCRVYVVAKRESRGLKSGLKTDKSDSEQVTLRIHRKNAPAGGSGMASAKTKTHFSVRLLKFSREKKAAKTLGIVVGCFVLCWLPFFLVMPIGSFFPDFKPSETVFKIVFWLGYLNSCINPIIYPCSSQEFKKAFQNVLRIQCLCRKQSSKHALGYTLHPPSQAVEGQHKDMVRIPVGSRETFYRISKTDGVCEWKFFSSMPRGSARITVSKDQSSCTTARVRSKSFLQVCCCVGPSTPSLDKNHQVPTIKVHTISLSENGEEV
The series is classed as functional, cell-based.

Series [5] deals with T1, Alpha-1A adrenergic receptor. The series is classed as functional, cell-based. The source holds these as a separate data set.
The next series has as its target Cannabinoid receptor 1 (Homo sapiens, UniProt P21554). It is filed as functional, cell-based.
The target of series [6] is T2, 5-hydroxytryptamine receptor 3A (Homo sapiens, UniProt P46098).
T2 sequence (P46098 whole entry): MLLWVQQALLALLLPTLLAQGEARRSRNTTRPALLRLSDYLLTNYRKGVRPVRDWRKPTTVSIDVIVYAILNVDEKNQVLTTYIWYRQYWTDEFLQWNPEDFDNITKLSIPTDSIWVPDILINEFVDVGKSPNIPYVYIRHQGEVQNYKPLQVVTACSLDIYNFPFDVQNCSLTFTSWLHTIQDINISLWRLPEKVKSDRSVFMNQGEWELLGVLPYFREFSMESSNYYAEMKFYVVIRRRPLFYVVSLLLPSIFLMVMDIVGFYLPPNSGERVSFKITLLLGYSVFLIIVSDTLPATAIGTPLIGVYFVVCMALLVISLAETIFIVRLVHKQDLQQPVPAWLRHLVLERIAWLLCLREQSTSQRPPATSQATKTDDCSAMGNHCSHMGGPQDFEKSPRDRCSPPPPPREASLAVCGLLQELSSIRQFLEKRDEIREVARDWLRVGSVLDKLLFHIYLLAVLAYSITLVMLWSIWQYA
The series is classed as functional.

Series [7] has as its target T3, Prostaglandin G/H synthase 1 (Rattus norvegicus, UniProt Q63921).
T3 sequence (Q63921 whole entry): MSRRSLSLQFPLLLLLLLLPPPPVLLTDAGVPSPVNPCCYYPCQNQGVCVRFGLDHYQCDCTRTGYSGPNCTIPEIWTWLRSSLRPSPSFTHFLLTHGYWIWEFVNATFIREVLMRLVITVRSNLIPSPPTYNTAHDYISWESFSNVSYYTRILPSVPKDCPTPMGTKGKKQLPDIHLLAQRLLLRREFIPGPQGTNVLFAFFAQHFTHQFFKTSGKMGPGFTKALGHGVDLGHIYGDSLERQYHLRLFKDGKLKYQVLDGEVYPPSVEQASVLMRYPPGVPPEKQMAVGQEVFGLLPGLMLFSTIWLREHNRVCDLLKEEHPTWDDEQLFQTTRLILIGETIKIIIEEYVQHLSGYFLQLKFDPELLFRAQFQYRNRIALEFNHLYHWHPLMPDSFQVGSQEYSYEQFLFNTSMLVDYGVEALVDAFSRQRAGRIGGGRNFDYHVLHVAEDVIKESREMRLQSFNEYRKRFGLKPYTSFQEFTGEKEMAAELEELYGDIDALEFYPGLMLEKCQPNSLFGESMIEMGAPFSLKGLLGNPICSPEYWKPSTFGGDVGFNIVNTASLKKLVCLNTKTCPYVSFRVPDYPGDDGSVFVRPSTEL
It is filed as functional.

The target in series [8] is T4, Alpha-2A adrenergic receptor (Homo sapiens, UniProt P08913).
T4 sequence (P08913 whole entry): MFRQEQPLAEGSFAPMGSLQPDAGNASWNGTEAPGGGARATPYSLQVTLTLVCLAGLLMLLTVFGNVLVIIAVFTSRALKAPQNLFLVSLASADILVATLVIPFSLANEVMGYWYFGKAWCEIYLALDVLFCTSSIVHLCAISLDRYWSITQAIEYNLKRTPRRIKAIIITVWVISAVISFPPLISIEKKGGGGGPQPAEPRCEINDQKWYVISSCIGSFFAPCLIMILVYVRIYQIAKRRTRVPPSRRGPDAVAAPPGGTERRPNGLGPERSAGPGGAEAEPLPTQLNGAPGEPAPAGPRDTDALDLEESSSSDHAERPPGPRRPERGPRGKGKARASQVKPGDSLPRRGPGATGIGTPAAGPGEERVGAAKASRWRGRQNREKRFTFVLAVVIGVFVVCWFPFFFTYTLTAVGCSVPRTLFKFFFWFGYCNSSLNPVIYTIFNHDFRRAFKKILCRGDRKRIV
The series is classed as functional, cell-based.

Series [9] addresses Sodium-dependent noradrenaline transporter (Homo sapiens, UniProt P23975).
Further: assay procedure not described here.

Chain of D(3) dopamine receptor (P35462 whole entry): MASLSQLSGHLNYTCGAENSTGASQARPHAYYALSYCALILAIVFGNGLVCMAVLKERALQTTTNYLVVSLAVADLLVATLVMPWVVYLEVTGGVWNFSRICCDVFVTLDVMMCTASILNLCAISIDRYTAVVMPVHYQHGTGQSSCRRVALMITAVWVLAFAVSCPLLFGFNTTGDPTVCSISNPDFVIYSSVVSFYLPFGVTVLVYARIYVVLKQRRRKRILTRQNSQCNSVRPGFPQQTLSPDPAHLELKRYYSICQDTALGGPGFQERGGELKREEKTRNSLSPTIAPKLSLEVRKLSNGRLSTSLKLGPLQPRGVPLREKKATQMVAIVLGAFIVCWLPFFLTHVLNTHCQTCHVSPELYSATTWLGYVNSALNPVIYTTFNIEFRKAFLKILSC
Chain of Sodium-dependent noradrenaline transporter (P23975 whole entry): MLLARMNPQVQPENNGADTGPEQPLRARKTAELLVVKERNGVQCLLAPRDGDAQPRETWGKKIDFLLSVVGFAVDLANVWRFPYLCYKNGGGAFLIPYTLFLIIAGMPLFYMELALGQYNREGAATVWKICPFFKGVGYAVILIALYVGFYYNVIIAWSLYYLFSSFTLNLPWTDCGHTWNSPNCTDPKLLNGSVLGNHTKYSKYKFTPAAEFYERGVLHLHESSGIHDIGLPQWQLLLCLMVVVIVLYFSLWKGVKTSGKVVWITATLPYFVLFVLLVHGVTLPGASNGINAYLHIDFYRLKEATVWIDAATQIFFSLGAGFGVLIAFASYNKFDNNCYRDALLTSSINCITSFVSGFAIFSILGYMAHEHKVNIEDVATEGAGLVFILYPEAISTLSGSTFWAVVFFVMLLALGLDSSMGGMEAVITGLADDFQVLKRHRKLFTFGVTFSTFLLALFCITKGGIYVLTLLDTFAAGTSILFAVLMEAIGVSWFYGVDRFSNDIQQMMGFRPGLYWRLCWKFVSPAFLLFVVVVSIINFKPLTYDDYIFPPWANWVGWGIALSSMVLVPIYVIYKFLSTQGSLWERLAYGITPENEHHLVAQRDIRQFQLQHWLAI
Chain of Motilin receptor (O43193 whole entry): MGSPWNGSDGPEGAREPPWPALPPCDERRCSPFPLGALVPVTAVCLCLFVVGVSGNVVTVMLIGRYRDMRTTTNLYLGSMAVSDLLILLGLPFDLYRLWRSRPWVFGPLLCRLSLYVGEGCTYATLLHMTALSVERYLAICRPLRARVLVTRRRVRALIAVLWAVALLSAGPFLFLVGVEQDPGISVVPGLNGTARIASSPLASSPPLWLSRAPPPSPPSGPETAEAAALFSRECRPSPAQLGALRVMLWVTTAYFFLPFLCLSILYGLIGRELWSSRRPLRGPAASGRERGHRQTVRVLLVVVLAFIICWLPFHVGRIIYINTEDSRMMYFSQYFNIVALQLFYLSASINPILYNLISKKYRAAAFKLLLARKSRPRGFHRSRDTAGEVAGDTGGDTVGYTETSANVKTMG
Chain of Cannabinoid receptor 1 (P21554 whole entry): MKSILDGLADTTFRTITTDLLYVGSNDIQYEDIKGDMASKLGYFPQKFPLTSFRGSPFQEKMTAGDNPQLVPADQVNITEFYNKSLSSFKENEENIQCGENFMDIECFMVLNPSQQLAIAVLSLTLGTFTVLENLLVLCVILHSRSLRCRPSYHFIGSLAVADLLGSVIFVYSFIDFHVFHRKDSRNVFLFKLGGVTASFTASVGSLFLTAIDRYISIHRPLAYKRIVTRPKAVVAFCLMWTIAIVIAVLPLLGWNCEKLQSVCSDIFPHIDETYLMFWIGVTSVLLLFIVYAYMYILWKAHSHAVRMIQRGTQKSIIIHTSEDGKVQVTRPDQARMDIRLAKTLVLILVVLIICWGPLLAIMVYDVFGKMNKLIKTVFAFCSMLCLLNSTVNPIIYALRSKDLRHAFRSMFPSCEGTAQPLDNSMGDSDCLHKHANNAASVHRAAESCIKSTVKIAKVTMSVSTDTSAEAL
Chain of Neuronal acetylcholine receptor subunit alpha-4 (P43681 whole entry): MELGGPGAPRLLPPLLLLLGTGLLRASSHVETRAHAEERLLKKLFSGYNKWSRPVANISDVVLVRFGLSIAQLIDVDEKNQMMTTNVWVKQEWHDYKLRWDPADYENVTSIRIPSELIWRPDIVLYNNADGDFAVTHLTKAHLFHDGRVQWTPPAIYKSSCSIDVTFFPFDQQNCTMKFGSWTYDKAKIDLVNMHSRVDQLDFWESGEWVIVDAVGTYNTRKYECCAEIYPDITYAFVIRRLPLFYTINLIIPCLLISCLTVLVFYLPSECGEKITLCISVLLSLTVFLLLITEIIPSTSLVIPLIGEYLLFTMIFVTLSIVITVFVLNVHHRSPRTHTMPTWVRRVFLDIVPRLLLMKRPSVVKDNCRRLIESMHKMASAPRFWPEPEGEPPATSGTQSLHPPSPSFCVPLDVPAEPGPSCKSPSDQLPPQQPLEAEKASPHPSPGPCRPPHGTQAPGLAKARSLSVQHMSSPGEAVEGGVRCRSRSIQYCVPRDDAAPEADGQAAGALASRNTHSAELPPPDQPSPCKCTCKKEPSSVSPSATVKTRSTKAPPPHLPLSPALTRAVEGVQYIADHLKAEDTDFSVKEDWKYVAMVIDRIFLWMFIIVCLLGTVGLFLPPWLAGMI

The term AC50 denotes the concentration giving half of the maximal activity seen. Consider `CC(C)(N)Cc1ccccc1` [PHENTERMINE], for which the AC50 at D(3) dopamine receptor is greater than 30 µM; in series [1], greater than 10 µM; in series [2] (read-out: AC50) it was greater than 30 µM; in [3] it was greater than 30 µM; on Motilin receptor it was greater than 10 µM; in [4], greater than 30 µM. Moreover, the concentration at half-maximal activity (AC50) in series [5] was greater than 30 µM; at Cannabinoid receptor 1 it was greater than 30 µM; in series [6] it was greater than 30 µM; in series [7], greater than 30 µM; in series [8], greater than 10 µM; in [9] it was 5.73 µM.
With `CC(=O)Oc1cccc2c1C(=O)c1c(OC(C)=O)cc(C(=O)O)cc1C2=O` [DIACEREIN], the AC50 on D(3) dopamine receptor was greater than 30 µM; in [1], 27 µM; in series [2] (read-out: AC50) it was greater than 30 µM; in [3], greater than 30 µM; at Motilin receptor, greater than 30 µM; in series [4] it was 21 µM. In addition, the AC50 was 13 µM in series [5]; greater than 30 µM at Cannabinoid receptor 1; greater than 30 µM in series [6]; 0.9 µM in series [7]; 13 µM in series [9].
Take `NS(=O)(=O)c1ccc(N2CCCCS2(=O)=O)cc1`: the AC50 (at D(3) dopamine receptor; in [1]; in series [2] (read-out: AC50); in series [3]; at Motilin receptor; in series [4]) was greater than 30 µM throughout. Besides, the AC50 (on Cannabinoid receptor 1; in [6]; in series [7]; in [8]; in series [9]) was greater than 30 µM throughout.
In the case of `COc1ccc2c3c1O[C@H]1C(=O)CC[C@H]4[C@@H](C2)N(C)CC[C@]314` [HYDROCODONE], the AC50 is greater than 10 µM at D(3) dopamine receptor; greater than 10 µM in series [1]; greater than 30 µM in series [2] (read-out: AC50); greater than 30 µM in series [3]; greater than 10 µM at Motilin receptor; greater than 30 µM in series [4]. Besides, the AC50 in series [5] is greater than 30 µM; in series [6] it was greater than 30 µM; in [7], greater than 30 µM; in series [8] it was greater than 10 µM; in series [9], greater than 10 µM.
For the compound `CCC(=O)O[C@H](CC(=O)O)C[N+](C)(C)C` [LEVOCARNITINE PROPIONATE], the AC50 (on D(3) dopamine receptor; in [1]; in series [2] (read-out: AC50); in series [3]; at Motilin receptor; in series [4]) was greater than 30 µM each time. Also, the AC50 (on Cannabinoid receptor 1; in series [6]; in [7]; in series [8]; in series [9]) was greater than 30 µM each time.
`O=C(O)c1ccc2nc(-c3cc(Cl)cc(Cl)c3)oc2c1`: the half-maximal activity concentration (AC50) is greater than 1 µM on D(3) dopamine receptor; greater than 30 µM in series [1]; greater than 30 µM in [2] (read-out: AC50); greater than 30 µM in series [3]; greater than 30 µM at Motilin receptor; greater than 30 µM in [4]. Besides, the AC50 in [5], in series [6], in [7], in series [8] and in series [9] was greater than 30 µM each time.
As to `CN1CCCN=C1/C=C/c1cccc(O)c1` [OXANTEL], the AC50 on D(3) dopamine receptor was greater than 30 µM; in series [1] it was 7.2 µM; in [2] (read-out: AC50), 6.2 µM; in [3] it was greater than 30 µM; at Motilin receptor, greater than 30 µM; in series [4] it was greater than 30 µM. For the same compound, the AC50 (in [5]; at Cannabinoid receptor 1; in [6]; in series [7]; in [8]) was greater than 30 µM throughout.
For the compound `Oc1cc(O)c2c(c1)O[C@H](c1ccc(O)c(O)c1)[C@@H](O)C2` [CIANIDANOL], the AC50 at D(3) dopamine receptor was greater than 30 µM; in series [1], greater than 10 µM; in series [2] (read-out: AC50) it was greater than 30 µM; in [3], greater than 30 µM; on Motilin receptor, greater than 10 µM; in [4], greater than 30 µM. The AC50 was greater than 30 µM in series [5]; greater than 30 µM on Cannabinoid receptor 1; greater than 30 µM in series [6]; greater than 10 µM in series [8]; greater than 30 µM in series [9].
For the compound `OCC(CO)N[C@H]1C[C@](O)(CO)[C@@H](O)[C@H](O)[C@H]1O` [VOGLIBOSE], the AC50 (at D(3) dopamine receptor; in series [1]; in series [2] (read-out: AC50); in series [3]; on Motilin receptor; in [4]) was greater than 30 µM each time. The AC50 in series [5], in series [6], in series [7], in series [8] and in series [9] was greater than 30 µM each time.
Consider `CC1NCCOC1c1ccccc1` (stereo not drawn) [PHENMETRAZINE], for which the AC50 on D(3) dopamine receptor is greater than 30 µM; in series [1], greater than 10 µM; in series [2] (read-out: AC50), greater than 30 µM; in [3], greater than 30 µM; at Motilin receptor it was greater than 10 µM; in series [4], 14 µM. The AC50 is greater than 30 µM on Cannabinoid receptor 1; greater than 30 µM in series [6]; greater than 30 µM in series [7]; greater than 10 µM in series [8]; 11.4 µM in [9].
Consider `CC1=C(C(=O)O)N2C(=O)[C@@H](NC(=O)[C@H](N)C3=CCC=CC3)[C@H]2SC1` [CEPHRADINE], for which the AC50 (at D(3) dopamine receptor; in [1]; in series [2] (read-out: AC50); in series [3]; on Motilin receptor; in series [4]) was greater than 30 µM in each case. Moreover, the AC50 (on Cannabinoid receptor 1; in [6]; in series [7]; in series [8]; in series [9]) was greater than 30 µM in each case.
Consider SITOSTEROLS, for which the AC50 at D(3) dopamine receptor is greater than 30 µM; in series [1], greater than 30 µM; in [2] (human, cellular components), greater than 30 µM; in series [3], greater than 30 µM; on Motilin receptor, greater than 30 µM; in series [4], greater than 30 µM. Further, the AC50 (in series [5]; at Cannabinoid receptor 1; in series [6]; in [8]; in [9]) was greater than 30 µM throughout.
